US9321721B2, “Kinase inhibitors” (Allergan, Inc., priority 2013, dated 2016)
Entries after “also recorded” stand apart in the source; their conditions may differ.

Molecular target: VEGFR2 (purified cytoplasmic domain KDR protein) (Homo sapiens (Human), UniProt P35968)
Experiment: VEGFR2 Kinase Assay (biochemical KDR kinase assay, ELISA readout)
Conditions: for IC50: 2.7 μM ATP, poly-Glu-Tyr (4:1) substrate, 15 minute incubation at 30° C.; for VEGFR2 potency as shown in this assay (in words): qualitative ranking based on the Table 2 data
Protocol: VEGFR2 kinase potency of select analogs was determined by the following assay:
Biochemical KDR kinase assays were performed in 96 well microtiter plates that were coated overnight with 75 μg/well of poly-Glu-Tyr (4:1) in 10 mM Phosphate Buffered Saline (PBS), pH 7.4. The coated plates were washed with 2 mls per well PBS+0.05% Tween-20 (PBS-T), blocked by incubation with PBS containing 1% BSA, then washed with 2 mls per well PBS-T prior to starting the reaction. Reactions were carried out in 100 μL reaction volumes containing 2.7 μM ATP in kinase buffer (50 mM Hepes buffer pH 7.4, 20 mM MgCl2, 0.1 mM MnCl2 and 0.2 mM Na3VO4). Test compounds were reconstituted in 100% DMSO and added to the reaction to give a final DMSO concentration of 5%. Reactions were initiated by the addition 20 ul per well of kinase buffer containing 200-300 ng purified cytoplasmic domain KDR protein (BPS Bioscience, San Diego, Calif.). Following a 15 minute incubation at 30° C., the reactions were washed 2 mls per well PBS-T. 100 μl of a monoclonal anti-phosphotyrosine antibody-peroxidase conjugate diluted 1:10,000 in PBS-T was added to the wells for 30 minutes. Following a 2 mls per well wash with PBS-Tween-20, 100 μl of O-Phenylenediamine Dihydrochloride in phosphate-citrate buffer, containing urea hydrogen peroxide, was added to the wells for 7-10 minutes as a colorimetric substrate for the peroxidase. The reaction was terminated by the addition of 100 μl of 2.5N H2SO4 to each well and read using a microplate ELISA reader set at 492 nm. IC50 values for compound inhibition were calculated directly from graphs of optical density (arbitrary units) versus compound concentration following subtraction of blank values.

Chain of VEGFR2 (purified cytoplasmic domain KDR protein) (P35968 786-1356): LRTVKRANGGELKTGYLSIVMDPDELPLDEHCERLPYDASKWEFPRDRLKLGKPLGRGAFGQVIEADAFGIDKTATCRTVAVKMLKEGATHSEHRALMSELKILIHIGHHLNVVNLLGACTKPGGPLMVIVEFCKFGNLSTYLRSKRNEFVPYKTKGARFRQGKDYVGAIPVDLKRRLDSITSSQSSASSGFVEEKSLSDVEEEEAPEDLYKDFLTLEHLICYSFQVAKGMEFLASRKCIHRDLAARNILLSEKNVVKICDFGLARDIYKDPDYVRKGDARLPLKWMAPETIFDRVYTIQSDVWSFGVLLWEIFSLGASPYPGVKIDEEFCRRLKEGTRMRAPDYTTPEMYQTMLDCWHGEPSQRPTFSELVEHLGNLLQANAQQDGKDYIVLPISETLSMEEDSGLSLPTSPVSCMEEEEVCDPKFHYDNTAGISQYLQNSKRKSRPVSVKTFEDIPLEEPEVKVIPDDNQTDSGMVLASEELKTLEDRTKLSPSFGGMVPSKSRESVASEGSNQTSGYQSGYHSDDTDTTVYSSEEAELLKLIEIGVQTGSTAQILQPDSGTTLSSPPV

Row | IC50 | VEGFR2 potency as shown in this assay (in words) | SMILES
1 | > 10000 nM | – | NC(=O)/C=C/c1ccc(NC(=O)Nc2cc(C(F)(F)F)ccc2F)cc1 [Example 6, (2E)-3-{4-[({[2-fluoro-5-(trifluoromethyl)phenyl]amino}carbonyl)amino]phenyl}acrylamide]
2 | > 10000 nM | – | NC(=O)/C=C(/c1ccccc1)c1cccc(NC(=O)Nc2cc(C(F)(F)F)ccc2F)c1 [Example 4, (2Z)-3-{3-[({[2-fluoro-5-(trifluoromethyl)phenyl]amino}carbonyl)amino]phenyl}-3-phenylacrylamide]
3 | > 10000 nM | – | NC(=O)/C=C/c1cccc(NC(=O)Nc2cc(C(F)(F)F)ccc2F)c1 [Example 5, (2E)-3-{3-[({[2-fluoro-5-(trifluoromethyl)phenyl]amino}carbonyl)amino]phenyl}acrylamide]
4 | 2790 nM | excellent VEGFR2 potency | NC(=O)/C=C\c1ccc(NC(=O)Nc2cc(C(F)(F)F)ccc2F)cc1 [Example 7, (2Z)-3-{4-[({[2-fluoro-5-(trifluoromethyl)phenyl]amino}carbonyl)amino]phenyl}acrylamide]
5 | 945 nM | excellent VEGFR2 potency | COc1cccc(/C(=C/C(N)=O)c2ccc(NC(=O)Nc3cc(C(F)(F)F)ccc3F)cc2)c1 [Example 2, (2E)-3-{4-[({[2-fluoro-5-(trifluoromethyl)phenyl]amino}carbonyl)amino]phenyl}-3-(3-methoxyphenyl)acrylamide]
6 | 626 nM | excellent VEGFR2 potency | NC(=O)/C=C(/c1ccccc1)c1ccc(NC(=O)Nc2cc(C(F)(F)F)ccc2F)cc1 [Example 1, (2Z)-3-{4-[({[2-fluoro-5-(trifluoromethyl)phenyl]amino}carbonyl)amino]phenyl}-3-phenylacrylamide]

Row | SMILES | IC50 | VEGFR2 potency as shown in this assay (in words)
7 | COc1ccc(/C(=C/C(N)=O)c2ccc(NC(=O)Nc3cc(C(F)(F)F)ccc3F)cc2)cc1 [Example 3, (2E)-3-{4-[({[2-fluoro-5-(trifluoromethyl)phenyl]amino}carbonyl)amino]phenyl}-3-(4-methoxyphenyl)acrylamide] | 457 nM | excellent VEGFR2 potency; also recorded: best VEGFR2 potency
